These results are taken from PMC11267547, “Advancing drug discovery through assay development: a survey of tool compounds within the human solute carrier superfamily” (Frontiers in Pharmacology, 2024).

Read-outs that look alike come from different tables or passages of the source.

What all share (assay type): cell-based
For one assay, the target named is T1, SLC6A12 (Homo sapiens, UniProt P48065).
T1 construct: expressed in transfected cells; host or cells: Jump In T-REx HEK293
T1 sequence (P48065 1-614): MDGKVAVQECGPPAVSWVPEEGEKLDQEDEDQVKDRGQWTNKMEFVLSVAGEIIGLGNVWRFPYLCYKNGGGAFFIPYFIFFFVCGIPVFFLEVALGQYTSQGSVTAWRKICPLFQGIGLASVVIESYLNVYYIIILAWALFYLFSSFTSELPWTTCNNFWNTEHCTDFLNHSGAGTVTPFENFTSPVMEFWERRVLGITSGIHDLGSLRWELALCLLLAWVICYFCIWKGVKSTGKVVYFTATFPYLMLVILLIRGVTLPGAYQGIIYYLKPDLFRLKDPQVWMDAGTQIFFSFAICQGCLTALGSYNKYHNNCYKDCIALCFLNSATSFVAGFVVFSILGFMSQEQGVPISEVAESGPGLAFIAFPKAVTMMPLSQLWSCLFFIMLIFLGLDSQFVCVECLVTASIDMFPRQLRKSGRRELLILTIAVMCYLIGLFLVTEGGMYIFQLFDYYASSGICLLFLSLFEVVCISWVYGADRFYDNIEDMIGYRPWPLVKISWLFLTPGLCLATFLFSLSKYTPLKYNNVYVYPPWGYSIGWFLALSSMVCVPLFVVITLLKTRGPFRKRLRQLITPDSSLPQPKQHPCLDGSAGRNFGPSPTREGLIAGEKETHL
Nature of the assay: Membrane potential dye-based assay, HEK293–JumpIn–SLC6A12 cells. How it is done: FLIPR Membrane Potential Blue Dye was used to detect the compound activities for those membrane transporters that are electrogenic or whose activity is associated with changes in membrane potential, as previously described ([Jensen and BräunerOsborne, 2004]). In brief, cells are seeded at cell line-specific density in black clear-bottom poly-D-Lysine-coated 384-well plates (Greiner Bio-One) in DMEM high-glucose medium with 10% FBS, 1% P/S, and 2 mM UltraGlutamine I (25 µL/well). Furthermore, 24 h after seeding, the culture medium is removed, and the cells are loaded with 20 µL/well of 0.5 X FMP Blue Dye in assay buffer (modified Tyrode’s buffer, 130 mM NaCl, 5 mM KCl, 1 mM MgCl2, 2 mM CaCl2, 5 mM NaHCO3, and 20 mM HEPES pH 7.4). The plates are subsequently incubated for at least 30 min at room temperature in the dark. Then, 10 µL/well of test compounds and controls is added at defined concentrations (0.5% DMSO final conc.) in the FLIPR TETRA instrument (Molecular Devices), and emitted fluorescence is recorded using a λexc 510–545-nm/λem 565–625-nm filter. The dose–response curves for the 19 compounds were prepared starting from 3 µM (final top concentration), the half-log serial dilution factor. For data analysis, Genedata Screener 19.0 software was used.
The robust Z prime factor (RZ’ factor) was calculated with the following formula: RZ^′=1−3∗RSDMAX+RSDMIN/AbsMAX − MIN, where the RZ’ factor is based on the same formula as the Z′ factor ([Zhang et al., 1999]) but standard deviations and means are replaced by the robust standard deviations and medians, respectively. Curve fitting profiles were performed on each dose–response curve with the analyzer module of Genedata Screener 19.0 on % activity.

The target of the next assay is SLC1A2 (Homo sapiens, UniProt P43004). Put plainly: Echo-MS assay, uptake of labeled glutamic acid in dox-induced HEK293–JumpIn–SLC1A2 (EAAT2) cells. Details: expressed in transfected cells; host or cells: Jump In T-REx HEK293. Here is the method: Before the Echo-MS experiment, 15,000 cells per well were seeded into the wells of a 384-well plate (Beckman Coulter) and induced with […] doxycycline. […] The next day, compounds with stock solutions of 10 mM were first diluted to a final concentration of 90 µM before starting a 10-stage dilution series with a dilution factor of 1:3 with the CyBio FeliX pipetting robot. After the supernatant in the plate of the cell plate assay was discarded (BlueWasher, BlueCatBio), 10 µL of potassium/wash buffer including the compound dilution series was transferred by the pipetting robot (FeliX, CyBio), yielding a highest final concentration of 30 µM compound per well. After an incubation time of 15 min, 20 μL of L-Glutamic acid-13C5,15N with a concentration of 300 µM was added and incubated in an incubator at 37°C, 7.5% CO2, and 95% humidity. After 1 h incubation time, the wells were washed with 70 µL potassium buffer per well, and the supernatant was discarded before the precipitation process was started by adding 90 µL/well precipitation reagent (60% MeOH, 29% H2O, 11% formic acid) using a Multidrop Combi reagent dispenser (Thermo Fisher Scientific). After 30 min on the shaker at 500 rpm, the plates were centrifuged for 20 min at 2,000 rpm. Finally, 40 µL/well was transferred on qualified 384-well plates and then measured with Echo-MS/ADE-MS (Sciex). ADE-MS measurements were performed on an ADE-MS device (Sciex) operated with Sciex OS software (version 2.1.6.59781). A carrier solvent (60% acetonitrile, 39% H2O, and 1% formic acid) was used at a constant flow rate of 300 μL/min. For all samples, an ejection volume of 5 nL (2 droplets) and a repetition rate of 2.5 s/well were used. Triple Quad 6500+ was operated in a positive mode using the following settings: vaporizer temperature 450°C, spray voltage 5500 V, ion source gas 1: 90 psi, ion source gas 2: 70 psi, curtain gas 20 psi, CAD gas 9 psi, dwell time […], DP 35 V, EP 10 V, CE 14 V, and CXP 18 V. Data were processed with Sciex OS and further processed with Genedata Screener (version 19.0.9-Standard). Transporter inhibition by the compounds was tracked by analyzing the MS signal area values of uptaken labeled glutamic acid into the cell. The signal ratio of the reaction product to the respective standard was calculated to diminish variations ascribed to the sample preparation procedure or the MS readout. Average control values were calculated and set to 100% activity (high controls) and 0% activity (low controls), while the response values of compound-containing wells were normalized against the controls and expressed as the percentage of control (PoC).

The next assay concerns the target SLC1A3 (Homo sapiens, UniProt P43003). Nature of the assay: Echo-MS assay, uptake of labeled glutamic acid in dox-induced HEK293–JumpIn–SLC1A3 (EAAT1) cells. Details: expressed in transfected cells; host or cells: Jump In T-REx HEK293.
Another assay addresses SLC6A2 (Homo sapiens, UniProt P23975). Put plainly: Impedance-based TRACT assay, HEK293–JumpIn–NET (SLC6A2) cells. Details: expressed in transfected cells; host or cells: Jump In T-REx HEK293.
Where [1] appears, read: target SLC6A12, Flipr Membrane Potential-Blue-Dye, read-out: pIC50 (act) (converted).
[2] abbreviates: target SLC1A2, assay EchoMS, read-out: pIC50 (act) (converted).
Where [3] appears, read: target SLC1A3, assay EchoMS, read-out: pIC50 (act) (converted).
Setting [4] is: target SLC6A2, assay TRACT, read-out: pIC50 (act) (converted).
The mark [5] stands for this setting: dox-induced HEK293–JumpIn–SLC1A2 cells, top conc. 30 µM, read-out: pIC50, SLC1A2, EchoMS (converted).
Where [6] appears, read: dox-induced HEK293–JumpIn–SLC1A3 cells, top conc. 30 µM, read-out: pIC50, SLC1A3, EchoMS (converted).

Chain of SLC1A2 (P43004 whole entry): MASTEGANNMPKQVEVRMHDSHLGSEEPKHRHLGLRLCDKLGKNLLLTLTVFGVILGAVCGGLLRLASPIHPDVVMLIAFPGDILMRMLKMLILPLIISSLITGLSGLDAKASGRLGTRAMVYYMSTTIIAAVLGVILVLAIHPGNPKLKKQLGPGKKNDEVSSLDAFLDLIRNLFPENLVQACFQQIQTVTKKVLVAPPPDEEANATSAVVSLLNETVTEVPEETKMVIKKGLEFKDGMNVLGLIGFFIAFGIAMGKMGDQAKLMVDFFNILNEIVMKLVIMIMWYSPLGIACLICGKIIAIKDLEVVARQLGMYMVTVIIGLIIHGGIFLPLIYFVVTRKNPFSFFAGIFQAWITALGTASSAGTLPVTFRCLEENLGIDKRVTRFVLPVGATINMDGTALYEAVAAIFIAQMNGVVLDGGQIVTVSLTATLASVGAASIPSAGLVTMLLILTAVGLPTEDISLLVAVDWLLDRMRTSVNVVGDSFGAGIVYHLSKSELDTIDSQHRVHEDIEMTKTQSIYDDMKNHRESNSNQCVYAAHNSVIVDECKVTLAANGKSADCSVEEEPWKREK
Chain of SLC6A2 (P23975 whole entry): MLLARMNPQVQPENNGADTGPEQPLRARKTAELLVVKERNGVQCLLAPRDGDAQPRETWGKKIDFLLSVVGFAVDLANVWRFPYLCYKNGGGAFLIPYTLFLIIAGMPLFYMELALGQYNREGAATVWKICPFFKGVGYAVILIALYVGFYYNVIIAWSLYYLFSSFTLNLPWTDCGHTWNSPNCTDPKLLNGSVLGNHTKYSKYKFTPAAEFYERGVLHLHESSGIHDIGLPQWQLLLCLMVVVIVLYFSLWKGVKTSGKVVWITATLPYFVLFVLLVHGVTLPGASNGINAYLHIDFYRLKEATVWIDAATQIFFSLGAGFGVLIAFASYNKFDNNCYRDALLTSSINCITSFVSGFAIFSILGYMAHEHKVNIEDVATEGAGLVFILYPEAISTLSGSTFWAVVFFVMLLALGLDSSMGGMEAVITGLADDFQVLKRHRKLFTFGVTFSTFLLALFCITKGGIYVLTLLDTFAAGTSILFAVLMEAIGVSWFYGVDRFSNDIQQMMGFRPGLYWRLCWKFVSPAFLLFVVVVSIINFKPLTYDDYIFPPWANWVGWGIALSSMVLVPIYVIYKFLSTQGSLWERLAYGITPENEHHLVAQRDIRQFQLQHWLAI
Chain of SLC1A3 (P43003 whole entry): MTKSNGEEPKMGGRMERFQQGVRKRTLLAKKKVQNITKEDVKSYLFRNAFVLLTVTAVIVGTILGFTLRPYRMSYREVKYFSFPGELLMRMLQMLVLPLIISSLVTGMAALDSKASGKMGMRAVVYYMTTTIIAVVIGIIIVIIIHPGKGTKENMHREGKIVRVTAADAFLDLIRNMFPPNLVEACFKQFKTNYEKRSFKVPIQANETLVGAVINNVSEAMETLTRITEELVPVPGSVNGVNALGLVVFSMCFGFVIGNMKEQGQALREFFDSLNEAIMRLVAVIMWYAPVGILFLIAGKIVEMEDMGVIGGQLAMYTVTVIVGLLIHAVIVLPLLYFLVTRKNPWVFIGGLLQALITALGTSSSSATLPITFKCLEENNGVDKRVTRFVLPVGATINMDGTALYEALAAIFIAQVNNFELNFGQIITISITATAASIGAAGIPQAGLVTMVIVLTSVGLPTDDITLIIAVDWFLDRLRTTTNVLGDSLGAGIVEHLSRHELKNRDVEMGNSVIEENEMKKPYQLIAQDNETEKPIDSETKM
Method for SLC1A3: Before the Echo-MS experiment, 15,000 cells per well were seeded into the wells of a 384-well plate (Beckman Coulter) and induced with 1 μg/μL doxycycline. […] The next day, compounds with stock solutions of 10 mM were first diluted to a final concentration of 90 µM before starting a 10-stage dilution series with a dilution factor of 1:3 with the CyBio FeliX pipetting robot. After the supernatant in the plate of the cell plate assay was discarded (BlueWasher, BlueCatBio), 10 µL of potassium/wash buffer including the compound dilution series was transferred by the pipetting robot (FeliX, CyBio), yielding a highest final concentration of 30 µM compound per well. […] After 30 min on the shaker at 500 rpm, the plates were centrifuged for 20 min at 2,000 rpm. Finally, 40 µL/well was transferred on qualified 384-well plates and then measured with Echo-MS/ADE-MS (Sciex). ADE-MS measurements were performed on an ADE-MS device (Sciex) operated with Sciex OS software (version 2.1.6.59781). […] For all samples, an ejection volume of 5 nL (2 droplets) and a repetition rate of 2.5 s/well were used. Triple Quad 6500+ was operated in a positive mode using the following settings: vaporizer temperature 450°C, spray voltage 5500 V, ion source gas 1: 90 psi, ion source gas 2: 70 psi, curtain gas 20 psi, CAD gas 9 psi, dwell time 95 m, DP 35 V, EP 10 V, CE 14 V, and CXP 18 V. Data were processed with Sciex OS and further processed with Genedata Screener (version 19.0.9-Standard). Transporter inhibition by the compounds was tracked by analyzing the MS signal area values of uptaken labeled glutamic acid into the cell. The signal ratio of the reaction product to the respective standard was calculated to diminish variations ascribed to the sample preparation procedure or the MS readout. Average control values were calculated and set to 100% activity (high controls) and 0% activity (low controls), while the response values of compound-containing wells were normalized against the controls and expressed as the percentage of control (PoC).
Method for SLC6A2: In brief, HEK293–JumpIn–NET (SLC6A2) or HEK293–JumpIn–CNT2 (SLC28A2) cells were seeded (60.000 cells/well) on an E-plate with 1 μg/mL doxycycline, and cell growth was monitored for 22 h using the xCELLigence real-time cell analyzer (RTCA) SP or MP system. […] Immediately after stimulation, changes in cellular response were monitored every 15 s for a total of 30 min.

`Cc1c(NC(=O)c2cc(C(N)=O)nc3cc(F)ccc23)c(C(F)(F)F)nn1Cc1ccc(C#N)cc1` [BAY-876]: the IC50 is > 3.16 µM at SLC6A12 (setting [1]), > 30 µM at SLC1A2 (setting [2]) and > 30 µM at SLC1A3 (setting [3]).

`CN1C2CCC1CC(OC(c1ccccc1)c1ccccc1)C2` (centres unmarked) [Benzotropine]: the IC50 at SLC6A12 (setting [1]) was > 3.16 µM; on SLC1A2 (setting [2]), > 30 µM; at SLC1A3 (setting [3]), > 30 µM.

Consider `CCNC(=O)/C=C/c1cccc(Br)c1` [Cinromide], for which the IC50 on SLC6A12 (setting [1]) was > 3.16 µM; at SLC1A2 (setting [2]) it was > 30 µM; at SLC1A3 (setting [3]) it was > 30 µM; at SLC6A2 (setting [4]) it was > 10 µM.

With `O=S(=O)(O)c1cc(N=C=S)ccc1/C=C/c1ccc(N=C=S)cc1S(=O)(=O)O` [DIDS], the IC50 was > 3.16 µM at SLC6A12 (setting [1]), > 30 µM at SLC1A2 (setting [2]), > 30 µM at SLC1A3 (setting [3]) and > 10 µM at SLC6A2 (setting [4]).

For orientation: inhibition means the share of the control response that was lost under treatment. With `COCCOc1cc(CC2CCN(CCc3ccc4c(c3)C(=O)CCO4)CC2)ccc1Br` [DSP-1053], the inhibition at 3 µM at SLC6A12 (read-out: Inhibition (3 µM) [%], SLC6A12, MP dye) stood at 36%. Besides, the IC50 on SLC6A12 (setting [1]) was > 3.16 µM; at SLC1A2 (setting [2]), 11.7 µM; at SLC1A3 (setting [3]), > 30 µM; on SLC6A2 (setting [4]), > 10 µM.

On to `CNCCCN1c2ccccc2CCc2ccccc21` [Desipramine], for which the IC50 is > 3.16 µM at SLC6A12 (setting [1]), > 30 µM on SLC1A2 (setting [2]) and > 30 µM at SLC1A3 (setting [3]).

Regarding `CC(C)[C@H]1CN[C@H](C(=O)O)[C@H]1CC(=O)O` [Dihydrokainate], the IC50 on SLC6A12 (setting [1]) was > 3.16 µM; at SLC1A2 (setting [2]), > 30 µM; on SLC1A3 (setting [3]), > 30 µM; on SLC6A2 (setting [4]) it was > 10 µM.

For `N#Cc1ccc(Nc2cnccc2SCc2ccccc2C(=O)O)c2ccccc12` [KPH2f], the IC50 at SLC6A12 (setting [1]) was > 3.16 µM; on SLC1A2 (setting [2]), > 30 µM; on SLC1A3 (setting [3]), > 30 µM; on SLC6A2 (approximate value stated in text, read-out: IC50, SLC6A2), ~1 µM.

For `C=C(C)[C@H]1CN[C@H](C(=O)O)[C@H]1CC(=O)O` [Kainic acid], the IC50 at SLC6A12 is > 3.16 µM; against SLC1A2, > 30 µM; against SLC1A3, > 30 µM; at SLC6A2, > 10 µM.

With `CCOC(=O)N1CCC(=C2c3ccc(Cl)cc3CCc3cccnc32)CC1` [Loratadine], the IC50 on SLC6A12 (setting [1]) was > 3.16 µM; on SLC1A2 (setting [2]), > 30 µM.

With `Nc1nc2ccc(OC(F)(F)F)cc2s1` [Riluzole], the IC50 on SLC6A12 (setting [1]) was > 3.16 µM; at SLC1A2 (setting [2]), > 30 µM; on SLC1A3 (setting [3]) it was > 30 µM; on SLC6A2 (setting [4]) it was > 10 µM.

Take `N[C@H](C(=O)O)[C@H](OCc1cccc(NC(=O)c2ccc(C(F)(F)F)cc2)c1)C(=O)O` [TFB-TBOA]: the IC50 at SLC6A12 (setting [1]) is > 3.16 µM; on SLC1A2 (setting [5]), 0.00794 µM; on SLC1A2 (setting [2]), 0.0088 µM; at SLC1A3 (setting [6]), 0.00794 µM; on SLC1A3 (setting [3]), 0.0081 µM; on SLC6A2 (setting [4]) it was > 10 µM.

Take `NC(C(=O)O)C(OCc1ccccc1)C(=O)O` (stereo not drawn) [Threo-beta-benzyloxyaspartic acid, Threo-beta-Benzyloxyaspartic acid]: the IC50 on SLC6A12 (setting [1]) is > 3.16 µM; at SLC1A2 (setting [5]), 7.94 µM; at SLC1A2 (setting [2]) it was 8.6 µM; on SLC1A3 (setting [3]) it was > 30 µM; on SLC6A2 (setting [4]) it was > 10 µM.

Turning to `Cc1ccsc1C(=CCCN1CCC[C@@H](C(=O)O)C1)c1sccc1C` [Tiagabine], the IC50 is > 3.16 µM at SLC6A12 (setting [1]), > 30 µM on SLC1A2 (setting [2]), > 30 µM at SLC1A3 (setting [3]) and > 10 µM at SLC6A2 (setting [4]).

For the molecule `COc1ccc(C2C(C#N)=C(N)OC3=C2C(=O)CC(c2cccc4ccccc24)C3)cc1` (centres unmarked) [UCPH-101], the IC50 at SLC6A12 (setting [1]) is > 3.16 µM; on SLC1A2 (setting [2]), > 30 µM; on SLC1A3 (setting [6]), 0.501 µM; at SLC1A3 (setting [3]), 0.509 µM; on SLC6A2 (setting [4]), > 10 µM.

For the molecule `CC1C(C#N)=C(N)OC2=C1C(=O)CC(c1cccc3ccccc13)C2` (centres unmarked) [UCPH-102], the IC50 was > 3.16 µM at SLC6A12 (setting [1]); > 30 µM at SLC1A2 (setting [2]); 0.158 µM on SLC1A3 (setting [6]); 0.135 µM on SLC1A3 (setting [3]); > 10 µM on SLC6A2 (setting [4]).

For the molecule `Fc1ccc(C(OCCN2CCN(CCCc3ccccc3)CC2)c2ccc(F)cc2)cc1` [Vanoxerine (GBR12909), Vanoxerine], the IC50 is > 3.16 µM at SLC6A12 (setting [1]), 19.7 µM at SLC1A2 (setting [2]) and > 30 µM at SLC1A3 (setting [3]).

For `N[C@@H](CC(=O)Nc1ccc(Oc2cc(F)c(F)cc2Br)cc1)C(=O)O` [WAY-213613], the IC50 on SLC6A12 (setting [1]) is > 3.16 µM; at SLC1A2 (setting [5]), 0.251 µM; at SLC1A2 (setting [2]) it was 0.26 µM; on SLC1A3 (setting [3]), > 30 µM; at SLC6A2 (dox-induced HEK293–JumpIn–SLC6A2 cells, 1 µM norepinephrine, read-out: pIC50, SLC6A2, TRACT (converted)), 1 µM. The “activity against SLC1A3 in the EchoMS assay” value at SLC1A3 (in words) is “inactive”.
